Measured values: US20250367209A1 (SOUTHERN RESEARCH INSTITUTE, priority 2022, published 2025)
“Also recorded” adds a separate entry of the source.

How the values were obtained:
[1] = Metabolic stability in human liver microsomes; type: in vitro ADME; settings: Table 3, read-out: ADME t1/2 (min): HLMt1/2
Source text: (§1) A computational analysis of the top five hits was then completed to assess the physical attributes of the compounds emerging from the HTS. The target profile for drug-like properties included evaluation of molecular weight (MW), total polar surface area (PSA, the surface sum of all polar atoms on the molecule), solubility, metabolic stability, and partition coefficient (LogD). In general, MW<[…] and PSA <70 Å^2 were targeted, which generally allows for blood-brain barrier (BBB) permeability. Compounds with PSA >100 A^2 are generally poor at permeating cell membranes. Solubility was targeted at >10 μM at pH 7.4 and 40-60% of compound remaining after 60 minutes of incubation in mouse or human liver microsomes (an indicator of compound stability after first-pass metabolism). LogD is the log of the ratio of concentrations of a compound in two immiscible solvents at equilibrium. Values ranging from 2-4 were targeted, typical for CNS drugs. Based on these criteria, compound no. 55 was selected as the top hit for optimization. Compound no.

Tau-FynSH3 interaction = Tau-FynSH3 interaction (Homo sapiens (Human), UniProt P10636); assay: Tau-FynSH3 AlphaScreen; type: binding; settings: Table 3; read-out: Alpha screen IC50
Source text: Human Fyn-SH3 domain with GST-tag at the N-terminus and a Strep-tag II ([…]) at the C-terminus (GST-Fyn-SH3-Strep) was cloned into pPR-IBA1 vector (IBA Lifesciences) (Cochran, et al. (2014) J. Biomol. Screen. 19, 1338-1349). Codon-optimized human 4R2N Tau for E. coli expression with a Strep-tag II at the C-terminus (His-Tau-Strep) was cloned into pET-28a(+) vector (Novagen). The constructs were transformed into E. coli BL-21(DE3) competent cells (Novagen). For GST-Fyn-SH3-Strep purification, a single colony was inoculated in Luria-Bertani (LB) broth at 37° C. overnight. 10 mL cell culture was added into 500 mL LB medium and cultured at 37° C. 0.5 mM Isopropyl β-D-1-thiogalactopyranoside (IPTG) was added into the culture when OD600 reached 0.7. Cells were further cultured at 25° C. for 4 hours and harvested. Cell pellet was resuspended in lysis buffer (20 mM Tris pH 7.9, 300 mM NaCl, 1 mM TCEP) with 1 tablet of EDTA-free protease inhibitors (ThermoFisher) and 1 mg/ml lysozyme. Cells were disrupted by sonication and debris was removed by centrifugation at 9500 rpm for 1 hour. Supernatant was loaded onto a glutathione-sepharose column (Cytiva). The column was washed in lysis buffer and protein eluted in lysis buffer containing 25 mM reduced glutathione. For His-Tau-Strep protein purification, cells were inoculated in LB broth medium and cultured at 37° C. overnight. A 10 mL overnight culture was added to 500 mL of auto-induction medium (Studier, F. W. (2005) Protein Expr Purif 41, 207-34) and cells were cultured at 37° C. for about 5 hours. The temperature was lowered to 18° C., and cells were cultured overnight. Cells were harvested and resuspended in lysis buffer with 20 mM imidazole, protease inhibitors, and lysozyme. Cells were disrupted by sonication and cell pellets were spun down at 9500 rpm for 1 hour. Supernatant was loaded onto Ni-NTA column (Cytiva) and the column was washed in lysis buffer with 20 mM imidazole. His-Tau-Strep protein was eluted in lysis buffer containing 400 mM imidazole. Both eluted GST-Fyn-SH3-Strep and His-Tau-Strep protein solutions were passed through G-25 desalting column (Cytiva) with lysis buffer and loaded onto high capacity Strep-Tactin column (IBA Lifesciences). The columns were washed in Buffer W (IBA Life sciences) and proteins were eluted in Buffer E (IBA life sciences). The eluted proteins were passed through G-25 desalting column again. Both GST-Fyn-Strep and His-Tau-Strep proteins were concentrated and diluted 1:1 in ethylene glycol as a cryoprotectant for storage at −80° C.
AlphaScreen was conducted with 10 µg/mL of glutathione donor beads (PerkinElmer, Waltham, MA) and nickel chelate acceptor beads (PerkinElmer) in 10 mM Bis-Tris (pH 7.0), 1 mM TCEP, 0.02% casein, and 0.1% Tween-20. Compounds were plated first followed by addition of one the proteins at 600 nM and incubation for 30 min. The second protein was added and incubated for 30 mn, then the beads were added simultaneously and the final mixture was incubated for 2 hours. Experiments were conducted in 384-well plates (6007290; PerkinElmer) and results were read on a PHERAstar plate reader (BMG Labtech, Cary, NC).
˜50,000 compounds from the Enamine and Southern Research libraries were screened to identify Tau-FynSH3 interaction inhibitors using an AlphaScreen assay (Cochran, et al. (2014) J. Biomol. Screen. 19, 1338-1349). Compounds that were >3 standard deviations above mean inhibition were selected, yielding 1,852 hits (FIG. 1A). […]. These 39 compounds were tested in a live-cell BRET assay to measure Tau-Fyn interaction in cells. […]. Screen. 19, 1338-1349).

[2] = Metabolic stability in mouse liver microsomes; type: in vitro ADME; settings: mouse, liver microsomes, Table 3, read-out: ADME t1/2 (min): MLMt1/2
[3] = Partition coefficient (LogD); type: physicochemical; settings: Table 3; read-out: ADME LogD
Source text: as §1

Solubility = type: physicochemical; settings: Table 3
primary rat neurons = assay: Modified MTT assay of Aβ toxicity in primary neurons; type: cell-based; settings: Table 3; Aβ toxicity in primary neurons
Source text: Primary neuron cultures: All animal procedures were approved by the Institutional Animal Care and Use Committee at the University of Alabama at Birmingham (UAB). As before (Rush, et al. (2020) Neurobiol Dis 134, 104668; Voskobiynyk, et al. (2020) eLife 9, e57354), primary rat neurons were isolated from timed-pregnant Sprague-Dawley rats. Briefly, dams were euthanized with isoflurane anesthesia asphyxiation, and hippocampal tissue was isolated from E19 embryos in Hibernate E, then digested in papain for 10 minutes at 37° C. Neurons were triturated into a single cell suspension in Neurobasal supplemented with B-27, L-Glutamine, and 10% FBS, then plated in 96-well plates coated with PDL and laminin at 30,000 neurons per well in 200 uL medium or in 24-well coated plates with or without coverslips at 50,000 per well. Cultures were maintained at 37° C. with 5% CO2. Twenty-four hours after plating (DIV1), two 50% media changes with Neurobasal plus B-27 and L-Glutamine without FBS, and 5 μM cytosine β-D-arabinofuranoside was added to prevent glial proliferation. 50% media changes were performed at DIV7 and DIV14 with serum-free supplemented Neurobasal and experiments were started at DIV19.
Aβ oligomer preparation: As before (Rush, et al. (2020) Neurobiol Dis 134, 104668), lyophilized recombinant Aβ42 was dissolved in HFIP, dried overnight, then stored at −20° C. until oligomerization. To oligomerize, Aβ was dissolved in DMSO to 1 mM, then diluted to 100 µM in PBS, then sonicated and left on ice for 24 hours. Immediately prior to use, Aβ was centrifuged at 4° C. for 10 minutes at 14,000×g. Vehicle was prepared as well in identical fashion except lacking the Aβ peptide.
Aβ toxicity assays: The modified MTT and MAP2 assays were adapted from a recent study (Rush, et al. (2020) Neurobiol Dis 134, 104668). Briefly, at DIV19, media on the neurons was reduced to […], then compound was added to final concentration of 0 μM, 0.3 μM, 3 μM, or 15 μM with even amounts of DMSO. After 90-minute pretreatment with compound, 2.5 μM Aβ was added.
The modified MTT assay was performed 24 hours after Aβ application. 100 μM MTT was applied to neurons and incubated at 37° C. for one hour. Media was removed, then replaced with 15 μL 1.6% Tween20 in PBS and incubated on a shaker at 100 rpm for 5 minutes. The Tween was then removed and transferred to a 384-well clear-bottom plate and replaced with 15 μL isopropanol. Plates were again agitated for 5 minutes at RT, then isopropanol was transferred to the 384-well plate. Absorbance was then read at 590 nm on a plate reader, with 660 nm used as a reference. The ratio of Tween soluble MTT to isopropanol soluble (Tween-insoluble) MTT was calculated for each sample, then normalized to the vehicle group average.

Tau-Fyn interaction = Tau-Fyn interaction (Homo sapiens (Human), UniProt P10636); assay: Tau-Fyn PLA screening in HEK-293 cells; type: cell-based; settings: Table 3; Tau-Fyn PLA
Description: Tau-Fyn PLA screening in HEK-293 cells: For Tau-Fyn PLA in HEK-293 cells, we used the same plasmids as before (Rush, et al. (2020) Neurobiol Dis 134, 104668): human 4R2N Tau with an N-terminal mKate2 tag in a pcDNA3.1 vector and human Fyn with an N-terminal Myc tag in a pCMV-Sport6 vector grown in Stellar E. coli. HEK-293 cells were plated on coverslips coated with PDL and laminin in a 24-well plate in DMEM supplemented with 10% FBS and 1% PenStrep. Cells were transfected with 125 ng of Tau-mKate2 and Fyn plasmids with 1.5 μL Fugene in plain DMEM. After 24 hours, compound was applied at 15 μM. Twenty-four hours after application, cells were fixed. PLA protocol was the same as above except for different primary antibodies (Tau5 1:500, Fyn3 1:250). After image acquisition, PLA density was calculated as PLA puncta (as above) divided by cell area to account for differences in confluency. Cell area was defined with ImageJ as % Area after theresholding Tau-mKate2 fluorescence because it filled the cells evenly. Puncta/cell area was then normalized to vehicle-treated slides from that experiment.

97 kinases = assay: Eurofins DiscoverX ScanEDGE kinase panel; type: biochemical; settings: compound no. 69 at 3 μM; saracatinib stock 30 μM = 1000× testing concentration; activity = <35% of control
Source text: 69 and compound no. […] Since Fyn was not included in that panel, a custom panel was completed for Fyn kinase activity.

[4] = Phase IIa, van Dyck et al. 2019; cited from earlier work
[5] = test system: Sam68(PxxP)-FynSH3 interaction; settings: Oneyama et al. 2002; cited from earlier work

Tau-FynSH3 interaction, sequence (P10636 other isoform, or with tags, fused parts or gaps): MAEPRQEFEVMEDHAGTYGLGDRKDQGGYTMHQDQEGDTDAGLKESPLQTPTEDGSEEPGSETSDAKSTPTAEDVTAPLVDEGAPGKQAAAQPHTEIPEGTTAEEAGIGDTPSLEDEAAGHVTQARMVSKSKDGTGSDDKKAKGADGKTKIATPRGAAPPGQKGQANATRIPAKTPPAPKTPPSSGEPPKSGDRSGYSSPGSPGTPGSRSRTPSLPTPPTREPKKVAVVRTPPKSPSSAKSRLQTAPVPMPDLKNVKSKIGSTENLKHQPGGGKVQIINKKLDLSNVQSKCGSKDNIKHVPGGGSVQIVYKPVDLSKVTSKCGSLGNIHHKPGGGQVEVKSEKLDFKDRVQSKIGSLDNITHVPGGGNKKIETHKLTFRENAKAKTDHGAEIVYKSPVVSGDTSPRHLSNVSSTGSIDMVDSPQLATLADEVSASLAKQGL
Tau-Fyn interaction, sequence (P10636 other isoform, or with tags, fused parts or gaps): as above

| Molecule | half-life [1] [min] | IC50 (Tau-FynSH3 interaction) [nM] | half-life [2] [min] | logD [3] | ADME Sol (μM) (Solubility) | PLA (Tau-Fyn interaction) | MTT (primary rat neurons) | kinase inhibition, panel of 97 kinases (97 kinases) | clinical benefit in AD [4] | Sam68(PxxP)-FynSH3 interaction [5] |
| --- | --- | --- | --- | --- | --- | --- | --- | --- | --- | --- |
| O=C(CCN1C(=O)CSc2cc(Cl)ccc21)Nc1nnc(-c2ccccn2)[nH]1 [compound 8, 3-(7-CHLORO-3-OXO-2H-BENZO[B][1,4]THIAZIN-4(3H)-YL)-N-(5-(PYRIDIN-2-YL)-4H-1,2,4-TRIAZOL-3-YL)PROPANAMIDE] | 62 | 2720 | 18 | 2.3 | Sol = 24 μM | – | Active | – | – | – |
| COc1ccc2c(c1)SCC(=O)N2CC(=O)Nc1nnc(-c2ccccn2)[nH]1 [compound 21, 2-(7-METHOXY-3-OXO-2H-BENZO[B][1,4]THIAZIN-4(3H)-YL)-N-(5-(PYRIDIN-2-YL)-4H-1,2,4-TRIAZOL-3-YL)ACETAMIDE] | 175 | 1030 | 53 | 1.7 | Sol = 46 μM | – | – | – | – | – |
| O=C(Cn1c(=O)sc2ccccc21)Nc1nnc(-c2ccccn2)[nH]1 [compound 26] | > 300 | 1010 | 82 | 1.5 | Sol = 22 μM | – | – | – | – | – |
| CN1CCN(CCOc2cc(OC3CCOCC3)c3c(Nc4c(Cl)ccc5c4OCO5)ncnc3c2)CC1 [saracatinib, reference compound] | – | – | – | – | – | – | – | inhibited several Src family kinases; also recorded: inhibits Src, Fyn, Abl, and EGFR kinase activity | showed no clinical benefit in AD at a tolerable dose | – |
| UCS15A | – | – | – | – | – | – | – | – | – | inhibits Sam68(PxxP)-FynSH3 interaction |

The next lines start with results.

| half-life [1] [min] | IC50 (Tau-FynSH3 interaction) [nM] | half-life [2] [min] | logD [3] | ADME Sol (μM) (Solubility) | PLA (Tau-Fyn interaction) | Molecule | MTT (primary rat neurons) | kinase inhibition, panel of 97 kinases (97 kinases) | clinical benefit in AD [4] | Sam68(PxxP)-FynSH3 interaction [5] |
| --- | --- | --- | --- | --- | --- | --- | --- | --- | --- | --- |
| 152 | 3530 | 40 | 1.3 | Sol = 59 μM | – | O=C(CN1C(=O)CCSc2ccccc21)Nc1nnc(-c2ccccn2)[nH]1 [compound 18, 2-(4-OXO-3,4-DIHYDROBENZO[B][1,4]THIAZEPIN-5(21)-YL)-N-(5-(PYRIDIN-2-YL)-4H-1,2,4-TRIAZOL-3-YL)ACETAMIDE] | – | – | – | – |
| 28 | 1500 | 8 | 1.3 | Sol = 20 μM | – | CC1(C)Sc2ccccc2N(CC(=O)Nc2nnc(-c3ccccn3)[nH]2)C1=O [compound 19] | – | – | – | – |
| 150 | – | 56 | 1.8 | Sol = 80 μM | Active | COc1ccc2c(c1)N(CC(=O)Nc1nnc(-c3ccccn3)[nH]1)C(=O)CS2 [compound 22, 2-(6-METHOXY-3-OXO-2H-BENZO[B][1,4]THIAZIN-4(3H)-YL)-N-(5-(PYRIDIN-2-YL)-4H-1,2,4-TRIAZOL-3-YL)ACETAMIDE] | Active | – | – | – |
